Measured values from patent US10123978B2, “Patch for treating dermatophytosis” (MEIJI SEIKA PHARMA CO., LTD., priority 2012, dated 2018).
Counter-ions that a name gives are not always drawn.

Tests used:
[1] = tested on: Trichophyton rubrum (T. rubrum) ATCC10218; assay: Antifungal activity test against dermatophytes (MIC); format: cell-based; conditions: 80% growth inhibiting concentration, RPMI1640/MOPS, 28° C., 4 days, WST8; for MIC: Trichophyton rubrum, 96 h
Procedure: (§1) Measurement of the anti-trichophyton activity of the compound of the formula (I) comprised in the patch of the present invention was carried out by the following method. The compound to be evaluated was used by dissolving in dimethyl sulfoxide (DMSO). As a medium for the test, RPMI1640 medium containing 0.165M of 3-morpholinopropanesulfonic acid (MOPS) was used. As fungi to be tested, Trichophyton mentagrophytes (T. mentagrophytes) ATCC18748 or Trichophyton rubrum (T. rubrum) ATCC10218 was used. The testing fungal strain was apportioned to 100 μl with a concentration of 1×10^4 conidia/ml, mixed with a compound to be evaluated on a 96-well half area plate so that the DMSO concentration became 1%, and cultured at a cultivation temperature of 28° C. for 3 days (Trichophyton mentagrophytes) or 4 days (Trichophyton rubrum). Thereafter, 5 μl of Cell Counting Kit 8 (WST8) was added thereto, and absorbances at 450 nm and 595 nm were measured to use these as background values. Thereafter, these were cultivated at 28° C. for 5 hours (Trichophyton mentagrophytes) or overnight (Trichophyton rubrum) to cause a color, and absorbances at 450 nm and 595 nm were measured again. A growth inhibiting rate was calculated from the difference to the background values, and a 80% growth inhibiting concentration was made an MIC value (μg/ml).

[2] = tested on: Trichophyton mentagrophytes (T. mentagrophytes) ATCC18748; assay: as above; format: cell-based; conditions: 80% growth inhibiting concentration, RPMI1640/MOPS, 28° C., 3 days, WST8; for MIC: Trichophyton mentagrophytes, 72 h
Procedure: as §1

SMILES	MIC [1]	MIC [2]	MIC (T. rubrum) [1]	MIC (T. mentagrophytes) [2]
CCC(C)(C)c1ccc(CC(C)CN2C[C@@H](C)O[C@@H](C)C2)cc1 (some centres unmarked) [Amorolfine hydrochloride, reference compound]	≤ 2 mg/L	≤ 1 mg/L		
CN(C/C=C/C#CC(C)(C)C)Cc1cccc2ccccc12 [Terbinafine hydrochloride, reference compound]	≤ 2 mg/L	≤ 1 mg/L		
Cc1cc(C(F)(F)F)nn1-c1ccccc1O [compound 5]			D (>32-64 μg/ml)	C (16 to 32 μg/ml)
Oc1ccccc1-n1nc(C(F)(F)F)cc1C(F)(F)F [compound 6]			E (>64 μg/ml)	C (16 to 32 μg/ml)
Cc1ccn(-c2ccccc2O)n1 [compound 7]			E (>64 μg/ml)	C (16 to 32 μg/ml)
Cc1ccnn1-c1ccccc1O [compound 8]			E (>64 μg/ml)	C (16 to 32 μg/ml)
Cc1nn(-c2ccccc2O)c(C)c1C [compound 9]			A (≤2 μg/ml)	A (≤1 μg/ml)
CC(C)(C)c1cc(N)n(-c2ccccc2O)n1 [compound 10]			E (>64 μg/ml)	D (Inhibited 50% or more and less than 80% with 32 μg/ml)
Cc1cc(C)n(-c2cccc(Cl)c2O)n1 [compound 12]			E (>64 μg/ml)	C (16 to 32 μg/ml)
Cc1nn(-c2ccccc2O)c(C)c1Cl [compound 13]			B (4-16 μg/ml)	A (≤1 μg/ml)
CCc1cc(CC)n(-c2ccccc2O)n1 [compound 14]			B (4-16 μg/ml)	B (2 to 8 μg/ml)
CCc1c(C)nn(-c2ccccc2O)c1C [compound 17]			A (≤2 μg/ml)	A (≤1 μg/ml)
Cc1nn(-c2ccc(F)cc2O)c(C)c1C [compound 18]			B (4-16 μg/ml)	B (2 to 8 μg/ml)
Cc1nn(-c2cc(O)ccc2O)c(C)c1Cl [compound 19]			C (16-32 μg/ml)	C (16 to 32 μg/ml)
Cc1nn(-c2cc(F)ccc2O)c(C)c1C [compound 20]			D (>32-64 μg/ml)	C (16 to 32 μg/ml)
Cc1nn(-c2ccc(F)cc2O)c(C)c1Cl [compound 21]			B (4-16 μg/ml)	A (≤1 μg/ml)
CCOC(=O)c1c(C)nn(-c2ccccc2O)c1C [compound 22]			D (>32-64 μg/ml)	C (16 to 32 μg/ml)
COC(=O)CCc1c(C)nn(-c2ccccc2O)c1C [compound 23]			D (>32-64 μg/ml)	C (16 to 32 μg/ml)
CCCCc1c(C)nn(-c2ccccc2O)c1C [compound 24]			C (16-32 μg/ml)	A (≤1 μg/ml)

SMILES	MIC [1]	MIC [2]	MIC (T. rubrum) [1]	MIC (T. mentagrophytes) [2]
Cc1nn(-c2ccc(Cl)cc2O)c(C)c1C [compound 30]			A (≤2 μg/ml)	A (≤1 μg/ml)
Cc1nn(-c2ccc([N+](=O)[O-])cc2O)c(C)c1C [compound 32]			B (4-16 μg/ml)	B (2 to 8 μg/ml)
Cc1nn(-c2ccc(N)cc2O)c(C)c1C [compound 34]			B (4-16 μg/ml)	B (2 to 8 μg/ml)
Cc1cc(C)n(-c2c(N)cccc2O)n1 [compound 36]			D (>32-64 μg/ml)	E (Inhibited less than 50% with 32 μg/ml)
Cc1nn(-c2ccc(C(=O)O)cc2O)c(C)c1C [compound 40]			D (>32-64 μg/ml)	E (Inhibited less than 50% with 32 μg/ml)
Cc1nn(-c2ccc(C(N)=O)cc2O)c(C)c1C [compound 41]			D (>32-64 μg/ml)	D (Inhibited 50% or more and less than 80% with 32 μg/ml)
Cc1nn(-c2ccc(C(N)=O)cc2O)c(C)c1Cl [compound 42]			D (>32-64 μg/ml)	C (16 to 32 μg/ml)
Cc1cc(C)n(-c2c(O)cccc2O)n1 [compound 43]			D (>32-64 μg/ml)	E (Inhibited less than 50% with 32 μg/ml)
Cc1cc(C)n(-c2c(C)cccc2O)n1 [compound 46]			D (>32-64 μg/ml)	E (Inhibited less than 50% with 32 μg/ml)
Cc1ccc(O)c(-n2nc(C)cc2C)c1 [compound 49]			D (>32-64 μg/ml)	E (Inhibited less than 50% with 32 μg/ml)
Cc1cc(C)n(-c2cccc(C)c2O)n1 [compound 51]			D (>32-64 μg/ml)	E (Inhibited less than 50% with 32 μg/ml)
Cc1nn(-c2ccccc2O)c(C)c1F [compound 53]			B (4-16 μg/ml)	B (2 to 8 μg/ml)
Cc1nn(-c2ccc(Br)cc2O)c(C)c1Cl [compound 55]			A (≤2 μg/ml)	A (≤1 μg/ml)
Cc1nn(-c2ccc(Br)cc2O)c(C)c1C [compound 56]			A (≤2 μg/ml)	A (≤1 μg/ml)
CC(=O)Oc1ccc(-n2nc(C)c(Cl)c2C)c(O)c1 [compound 58]			A (≤2 μg/ml)	B (2 to 8 μg/ml)
CC(=O)Oc1ccc(-n2nc(C)c(C)c2C)c(O)c1 [compound 59]			B (4-16 μg/ml)	B (2 to 8 μg/ml)
Cc1cc(C)n(-c2cc(Cl)c(C)cc2O)n1 [compound 61]			C (16-32 μg/ml)	C (16 to 32 μg/ml)
Cc1nn(-c2ccc(O)cc2O)c(C)c1Cl [compound 63]			A (≤2 μg/ml)	A (≤1 μg/ml)

Second part, the compound after the results:

MIC [1]	MIC [2]	MIC (T. rubrum) [1]	MIC (T. mentagrophytes) [2]	SMILES
		B (4-16 μg/ml)	B (2 to 8 μg/ml)	Cc1cc(C)n(-c2ccccc2O)n1 [compound 1]
		D (>32-64 μg/ml)	C (16 to 32 μg/ml)	Cc1cc(C)n(-c2cc(Cl)ccc2O)n1 [compound 11]
		C (16-32 μg/ml)	C (16 to 32 μg/ml)	Cc1cc(C)n(-c2cccc(O)c2O)n1 [compound 15]
		E (>64 μg/ml)	C (16 to 32 μg/ml)	Cc1cc(C)n(-c2cc(O)ccc2O)n1 [compound 16]
		B (4-16 μg/ml)	B (2 to 8 μg/ml)	Cc1cc(C)n(-c2ccc(F)cc2O)n1 [compound 25]
		A (≤2 μg/ml)	A (≤1 μg/ml)	Cc1cc(C)n(-c2ccc(Cl)cc2O)n1 [compound 26]
		C (16-32 μg/ml)	B (2 to 8 μg/ml)	Cc1cc(C)n(-c2ccc([N+](=O)[O-])cc2O)n1 [compound 28]
		B (4-16 μg/ml)	B (2 to 8 μg/ml)	Cc1cc(C)n(-c2ccc(N)cc2O)n1 [compound 31]
		A (≤2 μg/ml)	B (2 to 8 μg/ml)	Cc1cc(C)n(-c2ccc(O)cc2O)n1 [compound 33]
		C (16-32 μg/ml)	C (16 to 32 μg/ml)	COC(=O)c1ccc(-n2nc(C)cc2C)c(O)c1 [compound 35]
		B (4-16 μg/ml)	B (2 to 8 μg/ml)	Cc1cc(C)n(-c2ccc(C(=O)O)cc2O)n1 [compound 37]
		B (4-16 μg/ml)	C (16 to 32 μg/ml)	Cc1cc(C)n(-c2ccc(C(=O)N(C)C)cc2O)n1 [compound 38]
		C (16-32 μg/ml)	C (16 to 32 μg/ml)	Cc1cc(C)n(-c2ccc(C(N)=O)cc2O)n1 [compound 39]
		A (≤2 μg/ml)	A (≤1 μg/ml)	Cc1ccc(-n2nc(C)cc2C)c(O)c1 [compound 44]
		A (≤2 μg/ml)	A (≤1 μg/ml)	COc1ccc(-n2nc(C)cc2C)c(O)c1 [compound 45]
		B (4-16 μg/ml)	B (2 to 8 μg/ml)	Cc1cc(C)n(-c2ccc(CO)cc2O)n1 [compound 47]
		B (4-16 μg/ml)	B (2 to 8 μg/ml)	CNc1ccc(-n2nc(C)cc2C)c(O)c1 [compound 48]
		B (4-16 μg/ml)	B (2 to 8 μg/ml)	Cc1cc(C)n(-c2ccc(C(F)(F)F)cc2O)n1 [compound 50]
		A (≤2 μg/ml)	A (≤1 μg/ml)	CCc1ccc(-n2nc(C)cc2C)c(O)c1 [compound 52]
		A (≤2 μg/ml)	A (≤1 μg/ml)	Cc1cc(C)n(-c2ccc(Br)cc2O)n1 [compound 54]
		B (4-16 μg/ml)	B (2 to 8 μg/ml)	CC(=O)Oc1ccc(-n2nc(C)cc2C)c(O)c1 [compound 57]
